The values that follow are results of earlier work, collected in patent US11791016B2, “Methods and systems for computer-generated predictive application of neuroimaging and gene expression mapping data” (NEUMORA THERAPEUTICS, INC., priority 2017, dated 2023).

The target in data set [1] is 5-HT2A serotonin receptor (Homo sapiens, UniProt P28223). The following applies: healthy human subjects.
A further data set concerns the target T1, histamine H3 receptor (Homo sapiens, UniProt Q9Y5N1).
T1 construct: host or cells: patients with schizophrenia, in vivo (Egan et al. 2013)
The note with it: patients with schizophrenia.

The next data set concerns the target 5HT6 receptors (Homo sapiens, UniProt P50406).
Data set [2] addresses muscarinic M3 (CHRM3) receptor (Homo sapiens, UniProt P20309).

5-HT2A serotonin receptor, sequence (P28223 whole entry): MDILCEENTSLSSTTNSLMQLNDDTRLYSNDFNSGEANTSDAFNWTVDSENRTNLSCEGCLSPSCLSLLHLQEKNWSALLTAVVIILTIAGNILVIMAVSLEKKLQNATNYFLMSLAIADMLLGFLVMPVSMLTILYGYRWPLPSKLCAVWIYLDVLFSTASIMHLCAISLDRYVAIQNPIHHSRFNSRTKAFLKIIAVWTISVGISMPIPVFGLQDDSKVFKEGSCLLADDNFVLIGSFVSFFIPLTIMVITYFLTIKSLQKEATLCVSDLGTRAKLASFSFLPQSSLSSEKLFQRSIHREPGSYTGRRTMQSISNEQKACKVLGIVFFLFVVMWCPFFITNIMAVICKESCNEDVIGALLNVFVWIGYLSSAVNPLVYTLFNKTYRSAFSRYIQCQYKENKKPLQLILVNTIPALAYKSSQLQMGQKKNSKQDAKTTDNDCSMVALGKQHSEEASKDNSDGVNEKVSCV
muscarinic M3 (CHRM3) receptor, sequence (P20309 whole entry, species assumed): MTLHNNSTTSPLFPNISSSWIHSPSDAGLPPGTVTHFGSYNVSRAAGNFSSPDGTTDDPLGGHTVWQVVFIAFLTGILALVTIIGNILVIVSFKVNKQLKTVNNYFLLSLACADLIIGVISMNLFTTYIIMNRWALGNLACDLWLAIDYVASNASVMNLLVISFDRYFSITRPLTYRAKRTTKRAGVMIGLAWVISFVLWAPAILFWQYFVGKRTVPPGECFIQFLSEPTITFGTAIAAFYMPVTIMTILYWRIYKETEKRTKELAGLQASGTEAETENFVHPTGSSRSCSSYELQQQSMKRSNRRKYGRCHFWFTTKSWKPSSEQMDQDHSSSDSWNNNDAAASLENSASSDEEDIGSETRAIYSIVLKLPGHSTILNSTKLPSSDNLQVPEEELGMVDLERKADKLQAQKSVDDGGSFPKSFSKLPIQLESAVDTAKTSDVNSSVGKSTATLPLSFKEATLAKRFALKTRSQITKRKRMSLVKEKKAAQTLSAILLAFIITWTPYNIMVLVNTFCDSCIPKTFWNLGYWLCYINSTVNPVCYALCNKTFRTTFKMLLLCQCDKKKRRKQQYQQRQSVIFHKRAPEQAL
T1 sequence (Q9Y5N1 whole entry): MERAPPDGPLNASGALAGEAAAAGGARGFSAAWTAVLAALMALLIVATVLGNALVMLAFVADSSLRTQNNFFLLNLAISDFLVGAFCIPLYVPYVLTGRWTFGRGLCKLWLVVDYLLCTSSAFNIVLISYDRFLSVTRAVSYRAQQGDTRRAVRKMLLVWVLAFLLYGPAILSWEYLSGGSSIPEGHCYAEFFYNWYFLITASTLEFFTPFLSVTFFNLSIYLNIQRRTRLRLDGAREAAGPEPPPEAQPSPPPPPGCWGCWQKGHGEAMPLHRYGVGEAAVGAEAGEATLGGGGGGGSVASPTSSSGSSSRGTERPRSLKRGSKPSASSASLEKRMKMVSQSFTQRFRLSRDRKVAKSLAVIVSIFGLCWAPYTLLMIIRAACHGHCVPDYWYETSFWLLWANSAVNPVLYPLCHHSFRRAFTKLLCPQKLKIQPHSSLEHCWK
5HT6 receptors, sequence (P50406 whole entry): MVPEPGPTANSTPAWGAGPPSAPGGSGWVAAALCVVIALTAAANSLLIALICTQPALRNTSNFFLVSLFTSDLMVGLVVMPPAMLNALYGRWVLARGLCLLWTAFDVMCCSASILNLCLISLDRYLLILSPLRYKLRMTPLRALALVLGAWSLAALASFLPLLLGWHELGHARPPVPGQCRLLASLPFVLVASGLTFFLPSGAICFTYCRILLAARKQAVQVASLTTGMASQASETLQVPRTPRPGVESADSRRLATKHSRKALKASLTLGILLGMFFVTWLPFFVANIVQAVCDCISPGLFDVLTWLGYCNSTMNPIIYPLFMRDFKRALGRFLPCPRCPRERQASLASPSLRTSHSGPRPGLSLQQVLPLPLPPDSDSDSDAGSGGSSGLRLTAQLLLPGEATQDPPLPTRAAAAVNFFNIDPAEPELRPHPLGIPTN

For `CCN(CC)C(=O)[C@@H]1C=C2c3cccc4[nH]cc(c34)C[C@H]2N(C)C1` [LSD, lysergic acid diethylamide], in data set [1] (acute administration, fMRI-derived cortical map), the “change in mean functional connectivity (Global Brain Connectivity, GBC)” value is given as “large increase in occipital visual cortex”.
As for `Cc1nc2cccc(C(F)(F)F)c2c(=O)n1-c1ccc(OCCCN2CCCC2)cc1` [MK-0249], the “improvement of cognitive deficits” value on histamine H3 receptor is “failed to improve cognitive deficits”.
With `O=C1Nc2ccc(Cl)cc2[C@@](C#CC2CC2)(C(F)(F)F)O1` [efavirenz], the “mode of action at 5HT6 receptors” value on 5HT6 receptors was “inverse agonist activity”. For the same compound, the “mode of action at muscarinic M3 (CHRM3) receptor” value in data set [2] is recorded as “antagonist activity”.
With `O=C(c1ccc(F)cc1)C1CCN(CCn2c(=O)[nH]c3ccccc3c2=O)CC1` [ketanserin], in data set [1] (pre-administration before LSD), the “effect on LSD-induced neural change (GBC)” value is given as “blocked” and the “effect on behavioral effects of LSD” value was “blocked”.
